What was measured:
[1] = biological target: T1, PFCDPK1(P. falciparum) (Plasmodium falciparum, UniProt P62344); experiment: KINOMEscan; assay type: binding; conditions: read-out: Percent Control
T1 construct: purchased DiscoverX

[2] = system: MEK1 at S298; experiment: MEK phosphorylation in OVCAR3 and MCF7 cells, immunoblot; assay type: cell-based; conditions: 10 nM, 24 hours
Experimental: FIG. 3A is a series of Western blots showing OVCAR3 and MCF7 cells that were treated for 24 hours with DMSO, 10 nM BJG-05-039, or NVS-PAK1-1 as indicated. MEK and ERK phosphorylation was assessed by immunoblot with the indicated phosphorylation-specific antibodies. FIG. 3B is a Western blot showing MCF7 cells that were stably transduced with a doxycycline-regulated shRNA against PAK1. shRNA expression was induced by the indicated amounts of doxycycline and immunoblots were performed using cell lysates 24 hours post doxycycline addition. FIG. 3C is a Western blot showing MCF7 cells that were treated with vehicle or […] doxycycline. Immunoblots were performed using cell lysates 24 hours post doxycycline addition.
Cells were washed once in PBS and lysed in RIPA buffer (50 mM Tris-HCl, 150 mM NaCl, 0.25% (w/v) sodium deoxycholate, 1% (w/v) NP-40, pH 7.5) containing protease inhibitor cocktail (Roche) and phosphatase inhibitor cocktail (Roche) for 30 minutes on ice. […]
In certain cell lines, PAK1 has well-characterized functions in regulating proliferative signaling. […] As a readout for anti-PAK activity, phosphorylation of MEK1 at S298 was assessed, a direct target site for Group A PAKs (Coles, et al. (2002) Oncogene 21:2236-2244; Slack-Davis, et al. (2003) J. Cell. Biol., 162:281-291), as well as phosphorylation of the downstream target of MEK, ERK. […]

[3] = biological target: PHKG2 (Homo sapiens, UniProt P15735); experiment: KINOMEscan; conditions: read-out: Percent Control
Experimental: (§1) The kinase engagement assay (KINOMEscan®) was performed by DiscoverX assessing binding abilities toward a set of kinases.

[4] = biological target: DDR1 (Homo sapiens, UniProt Q08345); experiment: KINOMEscan; conditions: read-out: Percent Control
Chain of DDR1 (Q08345 19-913): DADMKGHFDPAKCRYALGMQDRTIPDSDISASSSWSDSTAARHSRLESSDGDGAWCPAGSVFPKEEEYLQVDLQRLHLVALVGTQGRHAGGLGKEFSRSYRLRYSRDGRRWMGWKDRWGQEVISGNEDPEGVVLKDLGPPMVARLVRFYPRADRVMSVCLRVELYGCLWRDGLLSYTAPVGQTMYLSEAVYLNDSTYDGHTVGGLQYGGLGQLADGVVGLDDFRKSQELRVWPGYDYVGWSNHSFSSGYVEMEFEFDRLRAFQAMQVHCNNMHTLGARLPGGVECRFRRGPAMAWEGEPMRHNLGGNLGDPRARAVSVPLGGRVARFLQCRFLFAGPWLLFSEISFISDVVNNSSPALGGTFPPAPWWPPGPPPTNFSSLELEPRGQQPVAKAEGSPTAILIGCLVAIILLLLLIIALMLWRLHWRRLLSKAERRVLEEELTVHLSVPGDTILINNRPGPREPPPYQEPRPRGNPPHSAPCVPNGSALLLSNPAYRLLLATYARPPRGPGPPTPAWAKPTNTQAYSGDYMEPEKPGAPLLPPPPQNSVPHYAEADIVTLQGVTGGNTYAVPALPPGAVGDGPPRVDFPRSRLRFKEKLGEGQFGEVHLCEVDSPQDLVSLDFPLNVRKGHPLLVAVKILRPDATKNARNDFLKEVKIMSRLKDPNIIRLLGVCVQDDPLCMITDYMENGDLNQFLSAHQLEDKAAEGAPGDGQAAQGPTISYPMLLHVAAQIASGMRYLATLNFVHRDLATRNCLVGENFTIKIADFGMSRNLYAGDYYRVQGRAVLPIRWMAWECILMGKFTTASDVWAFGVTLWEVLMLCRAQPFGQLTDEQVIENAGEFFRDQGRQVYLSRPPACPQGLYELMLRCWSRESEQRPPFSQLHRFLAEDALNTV
Experimental: as §1

[5] = biological target: CSNK1G3 (Homo sapiens, UniProt Q9Y6M4); experiment: KINOMEscan; conditions: read-out: Percent Control
Experimental: as §1

[6] = biological target: LIMK2 (Homo sapiens, UniProt P53671); experiment: KINOMEscan; conditions: read-out: Percent Control
Experimental: as §1

[7] = biological target: ASK1 (Homo sapiens, UniProt Q99683); experiment: KINOMEscan; conditions: read-out: Percent Control
Chain of ASK1 (Q99683 whole entry): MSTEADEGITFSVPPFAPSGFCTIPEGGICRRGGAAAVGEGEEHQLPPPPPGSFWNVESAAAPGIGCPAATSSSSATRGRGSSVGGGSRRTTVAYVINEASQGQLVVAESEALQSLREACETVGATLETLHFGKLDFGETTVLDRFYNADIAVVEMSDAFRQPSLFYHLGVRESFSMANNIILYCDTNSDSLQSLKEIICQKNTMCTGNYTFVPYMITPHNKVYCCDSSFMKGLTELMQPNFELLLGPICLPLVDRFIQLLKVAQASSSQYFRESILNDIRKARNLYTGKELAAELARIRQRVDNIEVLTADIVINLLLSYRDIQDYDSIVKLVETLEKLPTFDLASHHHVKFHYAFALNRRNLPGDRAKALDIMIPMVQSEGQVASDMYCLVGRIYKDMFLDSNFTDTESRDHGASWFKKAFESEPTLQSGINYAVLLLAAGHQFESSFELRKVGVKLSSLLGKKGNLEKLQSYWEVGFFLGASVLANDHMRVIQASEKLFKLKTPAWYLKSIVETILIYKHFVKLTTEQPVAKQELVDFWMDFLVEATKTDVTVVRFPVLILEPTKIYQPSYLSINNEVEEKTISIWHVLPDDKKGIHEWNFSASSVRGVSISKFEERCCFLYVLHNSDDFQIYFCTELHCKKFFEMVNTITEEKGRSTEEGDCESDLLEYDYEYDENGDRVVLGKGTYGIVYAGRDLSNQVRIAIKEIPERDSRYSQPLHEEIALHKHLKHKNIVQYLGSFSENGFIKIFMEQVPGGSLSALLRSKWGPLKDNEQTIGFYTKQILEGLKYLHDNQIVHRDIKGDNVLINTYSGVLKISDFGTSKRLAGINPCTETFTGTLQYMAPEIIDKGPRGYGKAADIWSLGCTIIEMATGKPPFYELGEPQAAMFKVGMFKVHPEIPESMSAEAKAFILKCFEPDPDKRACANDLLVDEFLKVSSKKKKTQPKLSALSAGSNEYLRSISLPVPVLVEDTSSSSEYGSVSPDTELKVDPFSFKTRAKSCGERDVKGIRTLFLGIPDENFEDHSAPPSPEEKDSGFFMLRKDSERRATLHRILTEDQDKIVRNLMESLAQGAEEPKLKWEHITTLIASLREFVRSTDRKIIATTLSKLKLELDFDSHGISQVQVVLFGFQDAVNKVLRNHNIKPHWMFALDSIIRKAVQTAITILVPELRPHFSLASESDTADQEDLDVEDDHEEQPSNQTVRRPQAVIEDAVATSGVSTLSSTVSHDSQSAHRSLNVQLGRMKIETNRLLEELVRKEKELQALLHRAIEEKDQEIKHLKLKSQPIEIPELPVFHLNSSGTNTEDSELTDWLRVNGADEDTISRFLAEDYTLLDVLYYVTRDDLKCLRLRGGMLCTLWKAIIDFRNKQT
Experimental: as §1

[8] = biological target: CAMK4 (Homo sapiens, UniProt Q16566); experiment: KINOMEscan; conditions: read-out: Percent Control
Experimental: as §1

[9] = biological target: GRK2 (Homo sapiens, UniProt P25098); experiment: KINOMEscan; conditions: read-out: Percent Control
Chain of GRK2 (P25098 whole entry): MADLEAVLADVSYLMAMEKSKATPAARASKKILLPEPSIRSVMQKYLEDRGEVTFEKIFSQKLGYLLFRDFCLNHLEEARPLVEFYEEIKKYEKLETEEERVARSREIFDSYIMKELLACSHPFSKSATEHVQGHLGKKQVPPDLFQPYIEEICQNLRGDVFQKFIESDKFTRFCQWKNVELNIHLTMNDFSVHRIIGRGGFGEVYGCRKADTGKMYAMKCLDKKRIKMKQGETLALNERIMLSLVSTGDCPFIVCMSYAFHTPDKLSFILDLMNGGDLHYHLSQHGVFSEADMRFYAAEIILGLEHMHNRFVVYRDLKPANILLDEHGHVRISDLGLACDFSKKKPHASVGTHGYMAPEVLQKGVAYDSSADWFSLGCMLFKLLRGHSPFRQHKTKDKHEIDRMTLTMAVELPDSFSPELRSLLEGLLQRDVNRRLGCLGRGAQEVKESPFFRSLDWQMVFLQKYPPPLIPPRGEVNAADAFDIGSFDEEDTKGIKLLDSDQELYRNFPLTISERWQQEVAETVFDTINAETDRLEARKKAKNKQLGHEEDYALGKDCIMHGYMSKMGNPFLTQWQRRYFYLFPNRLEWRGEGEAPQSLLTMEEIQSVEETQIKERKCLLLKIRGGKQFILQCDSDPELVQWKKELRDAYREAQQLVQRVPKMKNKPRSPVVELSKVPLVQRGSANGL
Experimental: as §1

[10] = biological target: FGR (Homo sapiens, UniProt P09769); experiment: KINOMEscan; conditions: read-out: Percent Control
Chain of FGR (P09769 whole entry): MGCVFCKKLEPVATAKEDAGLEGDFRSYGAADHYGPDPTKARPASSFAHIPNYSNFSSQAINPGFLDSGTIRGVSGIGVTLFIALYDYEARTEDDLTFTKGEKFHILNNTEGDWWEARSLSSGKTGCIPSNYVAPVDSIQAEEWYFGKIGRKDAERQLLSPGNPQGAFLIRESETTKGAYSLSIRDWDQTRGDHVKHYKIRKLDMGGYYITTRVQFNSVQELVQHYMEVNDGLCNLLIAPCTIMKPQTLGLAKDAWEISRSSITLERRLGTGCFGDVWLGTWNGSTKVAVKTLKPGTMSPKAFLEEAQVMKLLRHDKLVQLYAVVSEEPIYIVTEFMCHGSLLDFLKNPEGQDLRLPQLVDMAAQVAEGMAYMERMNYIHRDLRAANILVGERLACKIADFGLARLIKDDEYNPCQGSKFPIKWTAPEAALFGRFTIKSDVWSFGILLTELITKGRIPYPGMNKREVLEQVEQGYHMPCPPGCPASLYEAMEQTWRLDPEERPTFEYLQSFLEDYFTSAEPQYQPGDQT
Experimental: as §1

[11] = biological target: AKT1 (Homo sapiens, UniProt P31749); experiment: KINOMEscan; conditions: read-out: Percent Control
Experimental: as §1

[12] = biological target: FER (Homo sapiens, UniProt P16591); experiment: KINOMEscan; conditions: read-out: Percent Control
Experimental: as §1

[13] = biological target: EPHA7 (Homo sapiens, UniProt Q15375); experiment: KINOMEscan; conditions: read-out: Percent Control
Experimental: as §1

[14] = biological target: MERTK (Homo sapiens, UniProt Q12866); experiment: KINOMEscan; conditions: read-out: Percent Control
Experimental: as §1

[15] = biological target: KIT(A829P) (Homo sapiens, UniProt P10721, A829P); experiment: KINOMEscan; conditions: read-out: Percent Control
Experimental: as §1

[16] = biological target: YSK4 (Homo sapiens, UniProt Q56UN5); experiment: KINOMEscan; conditions: read-out: Percent Control
Experimental: as §1

[17] = biological target: EPHA6 (Homo sapiens, UniProt Q9UF33); experiment: KINOMEscan; conditions: read-out: Percent Control
Experimental: as §1

[18] = system: FLT3(ITD, D835V); experiment: KINOMEscan; conditions: 10 μM
Experimental: as §1

[19] = biological target: SNARK (Homo sapiens, UniProt Q9H093); experiment: KINOMEscan; conditions: read-out: Percent Control
Experimental: as §1

[20] = biological target: JAK3(JH1domain-catalytic) (Homo sapiens, UniProt P52333); experiment: KINOMEscan; conditions: read-out: Percent Control
Experimental: as §1

[21] = biological target: ABL1(H396P)-nonphosphorylated (Homo sapiens, UniProt P00519, H396P); experiment: KINOMEscan; conditions: read-out: Percent Control
Experimental: as §1

[22] = biological target: CDKL3 (Homo sapiens, UniProt Q8IVW4); experiment: KINOMEscan; conditions: read-out: Percent Control
Experimental: as §1

[23] = biological target: BTK (Homo sapiens, UniProt Q06187); experiment: KINOMEscan; conditions: read-out: Percent Control
Experimental: as §1

[24] = biological target: HIPK2 (Homo sapiens, UniProt Q9H2X6); experiment: KINOMEscan; conditions: read-out: Percent Control
Chain of HIPK2 (Q9H2X6 whole entry): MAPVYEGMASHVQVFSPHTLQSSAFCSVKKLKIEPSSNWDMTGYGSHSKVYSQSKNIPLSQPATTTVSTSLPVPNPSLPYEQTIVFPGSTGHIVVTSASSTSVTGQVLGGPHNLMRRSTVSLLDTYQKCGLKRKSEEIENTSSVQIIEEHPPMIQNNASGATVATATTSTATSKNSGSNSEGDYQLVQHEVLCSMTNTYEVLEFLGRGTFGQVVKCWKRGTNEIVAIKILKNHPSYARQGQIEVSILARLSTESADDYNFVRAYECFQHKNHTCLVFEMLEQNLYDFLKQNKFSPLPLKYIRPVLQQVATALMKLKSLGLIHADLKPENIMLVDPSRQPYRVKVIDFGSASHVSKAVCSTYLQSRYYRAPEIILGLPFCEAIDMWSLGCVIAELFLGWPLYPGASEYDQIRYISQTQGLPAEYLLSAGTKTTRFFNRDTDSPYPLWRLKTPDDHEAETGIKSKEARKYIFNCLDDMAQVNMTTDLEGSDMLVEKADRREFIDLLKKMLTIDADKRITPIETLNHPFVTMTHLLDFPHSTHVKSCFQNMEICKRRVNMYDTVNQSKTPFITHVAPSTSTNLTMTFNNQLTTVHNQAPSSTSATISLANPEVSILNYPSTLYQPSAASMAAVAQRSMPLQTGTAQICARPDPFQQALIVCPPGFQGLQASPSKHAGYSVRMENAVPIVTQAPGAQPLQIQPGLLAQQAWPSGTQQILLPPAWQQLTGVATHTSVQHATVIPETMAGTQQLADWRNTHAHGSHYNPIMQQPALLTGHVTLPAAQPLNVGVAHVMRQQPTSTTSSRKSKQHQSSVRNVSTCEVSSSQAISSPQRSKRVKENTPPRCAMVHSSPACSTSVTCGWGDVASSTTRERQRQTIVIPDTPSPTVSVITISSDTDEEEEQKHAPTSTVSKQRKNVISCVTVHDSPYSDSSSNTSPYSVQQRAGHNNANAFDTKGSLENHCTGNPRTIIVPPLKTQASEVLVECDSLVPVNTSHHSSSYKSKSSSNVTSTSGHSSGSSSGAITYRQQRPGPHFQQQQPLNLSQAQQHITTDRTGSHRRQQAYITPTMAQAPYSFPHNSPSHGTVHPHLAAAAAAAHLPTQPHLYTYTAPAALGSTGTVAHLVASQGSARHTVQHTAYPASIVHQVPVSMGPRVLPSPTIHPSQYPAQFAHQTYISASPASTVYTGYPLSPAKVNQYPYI
Experimental: as §1

[25] = biological target: HUNK (Homo sapiens, UniProt P57058); experiment: KINOMEscan; conditions: read-out: Percent Control
Experimental: as §1

[26] = biological target: MKK7 (Homo sapiens, UniProt O14733); experiment: KINOMEscan; conditions: read-out: Percent Control
Chain of MKK7 (O14733 whole entry): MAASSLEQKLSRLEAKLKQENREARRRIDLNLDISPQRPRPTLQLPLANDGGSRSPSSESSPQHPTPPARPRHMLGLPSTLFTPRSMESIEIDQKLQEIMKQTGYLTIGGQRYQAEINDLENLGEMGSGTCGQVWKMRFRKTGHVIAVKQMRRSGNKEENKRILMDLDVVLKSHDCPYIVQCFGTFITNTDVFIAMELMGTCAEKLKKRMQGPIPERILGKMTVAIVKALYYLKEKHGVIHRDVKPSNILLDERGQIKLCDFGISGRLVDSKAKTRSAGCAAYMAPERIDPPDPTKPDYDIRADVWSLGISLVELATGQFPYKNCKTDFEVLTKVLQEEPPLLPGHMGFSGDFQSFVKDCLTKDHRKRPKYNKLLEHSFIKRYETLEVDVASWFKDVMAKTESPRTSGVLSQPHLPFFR
Experimental: as §1

O=C1CCC(N2C(=O)c3cccc(NCCCCCCCCNC(=O)N4CC[C@H](NC5=Nc6cc(F)ccc6N(CC(F)F)c6ccc(Cl)cc65)C4)c3C2=O)C(=O)N1 (stereo partly drawn) [BJG-05-039, (3S)-3-((2-Chloro-5-(2,2-difluoroethyl)-8-fluoro-5H-dibenzo[b,e][1,4]diazepin-11-yl)amino)-N-(8-((2-(2,6-dioxopiperidin-3-yl)-1,3-dioxoisoindolin-4-yl)amino)octyl)pyrrolidine-1-carboxamide]
remaining binding at 10 µM [1]: 98% | Phosphorylation of MEK S298 [2]: inhibited phosphorylation of MEK S298 | remaining binding at 10 µM [3]: 40% | remaining binding at 10 µM [4]: 52% | remaining binding at 10 µM [5]: 63% | remaining binding at 10 µM [6]: 72% | remaining binding at 10 µM [7]: 73% | remaining binding at 10 µM [8]: 74% | remaining binding at 10 µM [9]: 77% | remaining binding at 10 µM [10]: 82% | remaining binding at 10 µM [11]: 83% | remaining binding at 10 µM [12]: 88% | remaining binding at 10 µM [13]: 90% | remaining binding at 10 µM [14]: 90% | remaining binding at 10 µM [15]: 92% | remaining binding at 10 µM [16]: 93% | remaining binding at 10 µM [17]: 94% | Percent Control [18]: 95 | remaining binding at 10 µM [19]: 96% | remaining binding at 10 µM [20]: 97% | remaining binding at 10 µM [21]: 98% | remaining binding at 10 µM [22]: 98% | remaining binding at 10 µM [23]: 100% | remaining binding at 10 µM [24]: 100% | remaining binding at 10 µM [25]: 100% | remaining binding at 10 µM [26]: 100%

Source: US20250312462A1, “PAK1 DEGRADERS AND METHODS OF USE THEREOF” (INSTITUTE FOR CANCER RESEARCH D/B/A THE RESEARCH INSTITUTE …, priority 2022, published 2025)
